ChEMBL document CHEMBL1132466, “Asymmetric synthesis of 9-alkyl-2-benzyl-6,7-benzomorphans: characterization as novel sigma receptor ligands” (J Med Chem, 1999)

Experiment: Affinity against Sigma opioid receptor type 1 using [3H](+)-pentazocine in guinea pig brain membranes

## C[C@@H]1[C@@H]2Cc3ccc(O)cc3[C@@]1(C)CCN2Cc1ccccc1
  Ki: 670 pM
